# Measured values published in patent US20210204549A1, “BACILLUS AMYLOLIQUEFACIENS AND NEONICOTINOIDS MIXTURES AND METHODS OF USE THEREOF” (Valent U.S.A. LLC, priority 2020, published 2021).
# System: tomato spotted wilt virus ("TSWV")
# Experiment: Greenhouse test of in-furrow treatments on peanut plants infected with tomato spotted wilt virus
# Assay type: in vivo
# Conditions: peanut plants (Arachis hypogaea), furrow spray; imidacloprid 254.85 g/HA; 63 days after treatment
# Description: The following greenhouse test was conducted from May 31, 2018 to Oct. 22, 2018 in Tift County, Georgia. Peanut plants (Arachis hypogaea) were used in the test as the crop plant. 6 seeds were planted per foot per row giving 360 seeds per plot. The peanut plants were infected with tomato spotted wilt virus (“TSWV”). Furrows were sprayed with B. amyloliquefaciens strain PTA-4838, imidacloprid, fluopyram and/or Mycorrhizae consortium at the rates disclosed in Table 1 prior to seedling plating. The plants were then infected with TSWV. Number of live plants were counted at 63 days after treatment. Percent TSWV infection was calculated as percent of row feet infected per plot. All data was analyzed using Bartlett's test and with p value of […] for determining significance of the results.
smiles,measurement,value
"O=[N+]([O-])NC1=NCCN1Cc1ccc(Cl)nc1 [Imidacloprid, imidacloprid]",% Control,96.4a %
